This note sets out measurements from patent publication US10072001B2, “Tank-binding kinase inhibitor compounds” (Gilead Sciences, Inc., priority 2014, dated 2018).

For one assay, the target named is IKKε (Homo sapiens (Human), UniProt Q14164). Nature of the assay: TR-FRET kinase assay, IKKε. The note with it: full length recombinant IKKε 0.3 nM, 2x Km ATP, 1 μM peptide, 240 min at 25° C.; geometric mean of minimum four determinations. Type of assay: biochemical. The text has this:
Biological Assay for TBK1 and IKKs:
On the technique in general: In TR-FRET formats the signal depends on donor and acceptor labels being close together.

A further assay addresses TBK1 (Homo sapiens (Human), UniProt Q9UHD2). Nature of the assay: TR-FRET kinase assay, TBK1. To be noted: read-out: TBK1-IC50; full length recombinant TBK1 2.5 nM, 2x Km ATP, 1 μM peptide, 240 min at 25° C.; geometric mean of minimum four determinations.

The term IC50 denotes the concentration that gives 50% inhibition.

Sequence of IKKε (Q14164 whole entry): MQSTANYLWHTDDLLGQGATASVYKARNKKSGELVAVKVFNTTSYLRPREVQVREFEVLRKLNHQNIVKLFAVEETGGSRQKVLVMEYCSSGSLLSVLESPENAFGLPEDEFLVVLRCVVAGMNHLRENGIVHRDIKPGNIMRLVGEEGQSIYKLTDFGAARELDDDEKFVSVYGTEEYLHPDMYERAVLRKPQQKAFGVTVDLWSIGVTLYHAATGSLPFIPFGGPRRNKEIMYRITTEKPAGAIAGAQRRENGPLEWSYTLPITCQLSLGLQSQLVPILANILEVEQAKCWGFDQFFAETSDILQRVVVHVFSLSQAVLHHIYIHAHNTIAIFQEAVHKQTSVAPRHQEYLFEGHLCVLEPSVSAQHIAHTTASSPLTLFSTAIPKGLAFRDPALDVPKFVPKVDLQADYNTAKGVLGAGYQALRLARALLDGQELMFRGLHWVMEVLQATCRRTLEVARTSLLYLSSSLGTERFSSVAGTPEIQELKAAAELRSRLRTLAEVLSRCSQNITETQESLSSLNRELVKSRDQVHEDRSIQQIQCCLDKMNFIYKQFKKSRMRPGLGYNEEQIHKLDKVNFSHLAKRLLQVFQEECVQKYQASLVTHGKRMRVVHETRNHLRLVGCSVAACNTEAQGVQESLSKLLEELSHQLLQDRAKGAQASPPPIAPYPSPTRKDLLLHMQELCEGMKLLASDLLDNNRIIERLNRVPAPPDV
Sequence of TBK1 (Q9UHD2 whole entry): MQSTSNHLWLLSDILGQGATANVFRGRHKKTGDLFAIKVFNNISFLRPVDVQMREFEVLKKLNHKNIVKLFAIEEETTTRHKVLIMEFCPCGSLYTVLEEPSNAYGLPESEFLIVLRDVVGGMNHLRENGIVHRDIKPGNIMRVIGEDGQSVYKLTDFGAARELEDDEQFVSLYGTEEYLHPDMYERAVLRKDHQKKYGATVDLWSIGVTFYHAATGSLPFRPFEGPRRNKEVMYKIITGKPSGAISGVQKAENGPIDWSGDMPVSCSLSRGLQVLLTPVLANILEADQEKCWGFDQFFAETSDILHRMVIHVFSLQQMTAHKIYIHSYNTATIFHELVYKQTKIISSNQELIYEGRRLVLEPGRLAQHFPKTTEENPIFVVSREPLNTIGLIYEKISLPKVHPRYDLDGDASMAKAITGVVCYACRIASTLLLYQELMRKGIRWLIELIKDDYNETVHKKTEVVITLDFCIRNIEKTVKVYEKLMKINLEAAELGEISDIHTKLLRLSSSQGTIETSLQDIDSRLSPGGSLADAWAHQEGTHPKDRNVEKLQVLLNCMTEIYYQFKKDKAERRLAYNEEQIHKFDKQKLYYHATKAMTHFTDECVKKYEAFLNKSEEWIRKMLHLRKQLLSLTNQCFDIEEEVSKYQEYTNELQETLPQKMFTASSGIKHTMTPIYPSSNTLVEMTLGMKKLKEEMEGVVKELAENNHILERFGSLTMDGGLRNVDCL
Experimental for TBK1: Enzymatic activity of IKKε and TBK1 was measured using a homogeneous time resolved fluorescence resonance energy transfer (TR-FRET) assay that monitors enzyme dependent phosphorylation of a biotinylated serine/threonine peptide substrate. […] TBK1 and IKKs were expressed and purified as full length recombinant proteins. Detection reagents for the assay were purchased from Cisbio. […] After an assay reaction time of 240 minutes at 25° C., reactions were terminated with EDTA.
Amount of phosphorylated peptide was determined by the addition of 125 nM streptavidin XL665 and europium cryptate labeled anti-phospho monoclonal antibody and the resulting TR-FRET signal was recorded on an Envision plate reader (Ex: 340 nm; Em: 615/665 nm; 100 μs delay and 200 μs read window). […] All IC50 values represent geometric mean values of a minimum of four determinations.

For the molecule `C[C@@H](O)C(=O)N1CC[C@@H](Oc2ccc(-c3ncnc4[nH]c(-c5ccc(N6CCOCC6)cc5)nc34)cc2C#N)C1` [Example 209, 2-(((R)-1-((R)-2-hydroxypropanoyl)pyrrolidin-3-yl)oxy)-5-(8-(4-morpholinophenyl)-9H-purin-6-yl)benzonitrile], the IC50 on IKKε was 58.7 nM; at TBK1, 13.1 nM.

`N#Cc1cc(-c2ccnc3[nH]c(-c4ccc(N5CCOCC5)c(F)c4)cc23)ccc1OC1CCOCC1` [Example 77, 5-(2-(3-fluoro-4-morpholinophenyl)-1H-pyrrolo[2,3-b]pyridin-4-yl)-2-((tetrahydro-2H-pyran-4-yl)oxy)benzonitrile]: the half-maximal inhibitory concentration (IC50) stood at 38 nM at IKKε and 10.9 nM at TBK1.

For the molecule `CC(=O)N1CC(Oc2ccc(-c3ccnc4[nH]c(-c5ccc(N6CCOCC6)cc5)cc34)cc2C#N)C1` [Example 153, 2-((1-acetylazetidin-3-yl)oxy)-5-(2-(4-morpholinophenyl)-1H-pyrrolo[2,3-b]pyridin-4-yl)benzonitrile], the IC50 stood at 195 nM at IKKε and 51.1 nM on TBK1.

With `N#Cc1cc(-c2ccnc3[nH]c(-c4ccc5[nH]ccc5c4)cc23)ccc1OC1CCOCC1` [Example 45, 5-(2-(1H-indol-5-yl)-1H-pyrrolo[2,3-b]pyridin-4-yl)-2-((tetrahydro-2H-pyran-4-yl)oxy)benzonitrile], the IC50 on IKKε came out at 32.2 nM; at TBK1, 32 nM.

On to `N#Cc1cc(-c2ncnc3[nH]c(-c4ccc(N5CCOCC5)c(F)c4)nc23)ccc1OC1CCOCC1` [Example 242, 5-(8-(3-fluoro-4-morpholinophenyl)-9H-purin-6-yl)-2-((tetrahydro-2H-pyran-4-yl)oxy)benzonitrile], for which the half-inhibitory concentration (IC50) came to 1000 nM on IKKε and 3.33 nM at TBK1.

`N#Cc1cc(-c2ccnc3[nH]c(-c4ccc(N5CCOCC5)cc4)cc23)ccc1N1CC(O)C1` [Example 52, 2-(3-hydroxyazetidin-1-yl)-5-(2-(4-morpholinophenyl)-1H-pyrrolo[2,3-b]pyridin-4-yl)benzonitrile]: the values for the IC50 at IKKε and at TBK1 were 3.33 nM and 15.6 nM, respectively.

In the case of `COc1ccc(C#N)cc1-c1ncnc2[nH]c(-c3ccc(N4CCOCC4)cc3)cc12` [Example 133, 4-methoxy-3-(6-(4-morpholinophenyl)-7H-pyrrolo[2,3-d]pyrimidin-4-yl)benzonitrile], the IC50 on IKKε and at TBK1 was 1000 nM each time.

As for `N#Cc1cc(-c2ccnc3[nH]c(-c4ccc(N5CCOCC5)cc4)nc23)ccc1OC1CCN(C(=O)CO)CC1` [Example 198, 2-((1-(2-hydroxyacetyl)piperidin-4-yl)oxy)-5-(2-(4-morpholinophenyl)-3H-imidazo[4,5-b]pyridin-7-yl)benzonitrile], the IC50 was 3.42 nM on IKKε and 2.3 nM on TBK1.

For the molecule `N#Cc1cc(-c2ccnc3[nH]c(-c4cccc(N5CCOCC5)c4)cc23)ccc1OC1CCOCC1` [Example 78, 5-(2-(3-morpholinophenyl)-1H-pyrrolo[2,3-b]pyridin-4-yl)-2-((tetrahydro-2H-pyran-4-yl)oxy)benzonitrile], the figures for the IC50 on IKKε and on TBK1 were 40.1 nM and 25.5 nM, respectively.

`N#Cc1cc(-c2ccnc3[nH]c(-c4ccc5c(c4)OCC(=O)N5)cc23)ccc1OC1CCOCC1` [Example 75, 5-(2-(3-oxo-3,4-dihydro-2H-benzo[b][1,4]oxazin-7-yl)-1H-pyrrolo[2,3-b]pyridin-4-yl)-2-((tetrahydro-2H-pyran-4-yl)oxy)benzonitrile]: the IC50 at IKKε is 10.5 nM; on TBK1, 6.28 nM.

Turning to `COc1cc(-c2cc3c(-c4ccc(OC5CCS(=O)(=O)CC5)c(C#N)c4)ncnc3[nH]2)ccc1N1CCN(C2COC2)CC1` [Example 139, 2-((1,1-dioxidotetrahydro-2H-thiopyran-4-yl)oxy)-5-(6-(3-methoxy-4-(4-(oxetan-3-yl)piperazin-1-yl)phenyl)-7H-pyrrolo[2,3-d]pyrimidin-4-yl)benzonitrile], the values for the IC50 on IKKε and on TBK1 were 25 nM and 3.68 nM, respectively.

As for `N#Cc1cc(-c2ccnc3[nH]c(-c4ccc(N5CCOCC5)cc4)cc23)cnc1OC1CCOCC1` [Example 29, 5-(2-(4-morpholinophenyl)-1H-pyrrolo[2,3-b]pyridin-4-yl)-2-((tetrahydro-2H-pyran-4-yl)oxy)nicotinonitrile], the figures for the IC50 at IKKε and at TBK1 were 242 nM and 14.8 nM, respectively.

Take `N#Cc1cc(-c2ncnc3[nH]c(-c4ccc(C(=O)N5CCOCC5)cc4)cc23)ccc1OC1CCOCC1` [Example 186, 5-(6-(4-(morpholine-4-carbonyl)phenyl)-7H-pyrrolo[2,3-d]pyrimidin-4-yl)-2-((tetrahydro-2H-pyran-4-yl)oxy)benzonitrile]: the IC50 on IKKε stood at 4.96 nM; on TBK1, 1.62 nM.

As to `N#Cc1cc(-c2ccnc3[nH]c(-c4cccc(N5CCOCC5)c4)nc23)ccc1OC1CCOCC1` [Example 308, 5-(2-(3-morpholinophenyl)-3H-imidazo[4,5-b]pyridin-7-yl)-2-((tetrahydro-2H-pyran-4-yl)oxy)benzonitrile], the IC50 on IKKε stood at 18.1 nM; on TBK1, 25.1 nM.

As to `N#Cc1cc(-c2ccnc3[nH]c(-c4ccc(N5CCOCC5)cc4)cc23)ccc1OC1CCN(C(=O)CN)CC1` [Example 152, 2-((1-(2-aminoacetyl)piperidin-4-yl)oxy)-5-(2-(4-morpholinophenyl)-1H-pyrrolo[2,3-b]pyridin-4-yl)benzonitrile], the IC50 at IKKε was 18.4 nM; on TBK1, 5.96 nM.

As for `N#Cc1cc(-c2ccnc3[nH]c(C(=O)Nc4ccccc4)cc23)ccc1OC1CCOCC1` [Example 61, 4-(3-cyano-4-((tetrahydro-2H-pyran-4-yl)oxy)phenyl)-N-phenyl-1H-pyrrolo[2,3-b]pyridine-2-carboxamide], the IC50 was 112 nM at IKKε and 312 nM at TBK1.

For the molecule `N#Cc1cc(-c2ccnc3[nH]c(-c4ccc(N5CCOCC5)cc4)cc23)ccc1OC1CN(C(=O)CO)C1` [Example 154, 2-((1-(2-hydroxyacetyl)azetidin-3-yl)oxy)-5-(2-(4-morpholinophenyl)-1H-pyrrolo[2,3-b]pyridin-4-yl)benzonitrile], the results for the IC50 at IKKε and at TBK1 were 146 nM and 32.4 nM, respectively.

For the molecule `CC(C)(O)c1ccc(-c2cc3c(-c4ccc(O[C@@H]5CCN(C(=O)CO)C5)c(C#N)c4)ccnc3[nH]2)cc1` [Example 149, (R)-2-((1-(2-hydroxyacetyl)pyrrolidin-3-yl)oxy)-5-(2-(4-(2-hydroxypropan-2-yl)phenyl)-1H-pyrrolo[2,3-b]pyridin-4-yl)benzonitrile], the figures for the IC50 at IKKε and on TBK1 were 2.27 nM and 1.54 nM, respectively.

Take `CN1CCN(c2ccc(-c3nc4c(-c5ccc(OC6CCNCC6)c(C#N)c5)ncnc4[nH]3)cc2)CC1` [Example 247, 5-(8-(4-(4-methylpiperazin-1-yl)phenyl)-9H-purin-6-yl)-2-(piperidin-4-yloxy)benzonitrile]: the IC50 on IKKε turned out to be 16.8 nM; on TBK1 it was 11.3 nM.

Consider `CC(C)Oc1ccc(-c2ccnc3[nH]c(-c4ccc(N5CCOCC5)cc4)cc23)cc1C#N` [Example 71, 2-isopropoxy-5-(2-(4-morpholinophenyl)-1H-pyrrolo[2,3-b]pyridin-4-yl)benzonitrile], for which the IC50 on IKKε was found to be 358 nM; at TBK1 it was 59.3 nM.

For the molecule `N#Cc1cc(-c2ccnc3[nH]c(C(=O)N4CCCC4)cc23)ccc1OC1CCOCC1` [Example 117, 5-(2-(pyrrolidine-1-carbonyl)-1H-pyrrolo[2,3-b]pyridin-4-yl)-2-((tetrahydro-2H-pyran-4-yl)oxy)benzonitrile], the IC50 on IKKε was 262 nM; at TBK1, 383 nM.

For the molecule `C=C(C)c1ccc(-c2cc3c(-c4ccc(O[C@@H]5CCN(C(=O)CO)C5)c(C#N)c4)ccnc3[nH]2)cc1` [Example 150, (R)-2-((1-(2-hydroxyacetyl)pyrrolidin-3-yl)oxy)-5-(2-(4-(prop-1-en-2-yl)phenyl)-1H-pyrrolo[2,3-b]pyridin-4-yl)benzonitrile], the IC50 on IKKε was 18.4 nM; at TBK1 it was 11.2 nM.

As to `N#Cc1cc(-c2ncnc3[nH]c(-c4ccc(CC(=O)O)cc4)cc23)ccc1OC1CCOCC1` [Example 168, 2-(4-(4-(3-Cyano-4-((tetrahydro-2H-pyran-4-yl)oxy)phenyl)-7H-pyrrolo[2,3-d]pyrimidin-6-yl)phenyl)acetic acid], the results for the IC50 on IKKε and on TBK1 were 15.7 nM and 13.7 nM, respectively.

With `N#Cc1cc(-c2ncnc3[nH]c(-c4cccc(N5CCOCC5)c4)nc23)ccc1OC1CCOCC1` [Example 211, 5-(8-(3-morpholinophenyl)-9H-purin-6-yl)-2-((tetrahydro-2H-pyran-4-yl)oxy)benzonitrile], the results for the IC50 on IKKε and at TBK1 were 25.3 nM and 9.57 nM, respectively.

Regarding `N#Cc1cc(-c2ncnc3[nH]c(-c4ccc(N5CCN(C6COC6)CC5)cc4)cc23)ccc1OC1CCOCC1` [Example 105, 5-(6-(4-(4-(oxetan-3-yl)piperazin-1-yl)phenyl)-7H-pyrrolo[2,3-d]pyrimidin-4-yl)-2-((tetrahydro-2H-pyran-4-yl)oxy)benzonitrile], the IC50 on IKKε stood at 5.54 nM; on TBK1, 0.87 nM.

`CN1CCN(c2ccc(-c3cc4c(-c5ccc(OC6CCOCC6)c(C#N)c5)ncnc4[nH]3)cc2)CC1` [Example 219, 5-(6-(4-(4-methylpiperazin-1-yl)phenyl)-7H-pyrrolo[2,3-d]pyrimidin-4-yl)-2-((tetrahydro-2H-pyran-4-yl)oxy)benzonitrile]: the IC50 turned out to be 3.37 nM at IKKε and 2.5 nM on TBK1.

For the molecule `Cn1nccc1-c1cc2c(-c3ccc(OC4CCOCC4)c(C#N)c3)ccnc2[nH]1` [Example 181, 5-(2-(1-methyl-1H-pyrazol-5-yl)-1H-pyrrolo[2,3-b]pyridin-4-yl)-2-((tetrahydro-2H-pyran-4-yl)oxy)benzonitrile], the half-maximal inhibitory concentration (IC50) was found to be 34.8 nM at IKKε and 23.9 nM at TBK1.
